Source: US7148250B2, “Indoles as NAALADase inhibitors” (Guilford Pharmaceuticals Inc., priority 2001, dated 2006)

Assays:
NAALADase = target: T1, NAALADase (Homo sapiens, UniProt Q04609); test: In vitro inhibition of NAALADase activity; assay type: biochemical; settings: average IC50 values
T1 construct: from tissue; host or cells: unspecified "tissue"
Method: Various compounds of the invention were tested for in vitro inhibition of NAALADase activity.
The following were combined in assay tubes: 100 μL of 10 mM CoCl2, 250 μof 200 mM Tris chloride, 100 μL tissue, 100 μL of 10 mM NAALADase inhibitor in Bakers H2O, and Bakers H2O to make a total volume of 950 μL. Each assay tube was then incubated for 10 minutes in a 37 EC water bath. […] The assay was stopped by adding 1.0 ml of 0.1 M sodium phosphate.
Glutamate released by the action of the NAALADase enzyme was separated from the assay solution using an anion exchange resin. The resin was equilibrated to 25 EC, 2.0 ml of the resin was added to a Pasteur pipette pre-loaded with a single glass bead, and each column was washed twice with distilled H2O. A column was placed over a scintillation vial and 200 μL of an assay sample was loaded onto the column. After draining, glutamate was eluted using two 1.0 ml washes of 1 M formic acid. After addition of 10 ml of scintillation cocktail, each sample was counted for 2 minutes on a scintillation counter.

STZ-diabetic rats [1] = test: Neuropathic pain in STZ model (thermal withdrawal latency); assay type: in vivo, rat; settings: 10 mg/kg i.p. daily, treatment from 45 days post STZ
Method: Male Sprague-Dawley rats (200–225 g) were rendered diabetic by intravenous administration of streptozotocin (“STZ”, 70 mg/kg in phosphate buffered saline). Diabetic animals were divided into five groups: one group receiving Compound A (10 mg/kg or 1 mg/kg), Compound D (10 mg/kg or 1 mg/kg) or vehicle. Another group of animals (non-STZ treated) served as non-diabetic controls. Drug/vehicle treatment was started in diabetic animals 45 days post-STZ administration. STZ-induced diabetic rats were tested for sensitivity to a heat source as soon as blood glucose levels rose to 320 mg/dl or above (30 days post STZ). The rats were then acclimated to a Hargreaves apparatus and thermal nociception was monitored using an infrared heat source directed into the dorsal surface of the hindpaw, and the time taken for the animal to remove its paw noted to the nearest 0.1 seconds (see Hargreaves et al., supra, for detailed experimental method). The intensity of the beam source was adjusted such that the mean latency for control animals (non-STZ treated) was approximately 10 seconds. Each animal was tested 8 times and the mean difference score (between mean non-diabetic control latency and mean diabetic latency) are graphically presented in FIGS. 7A and 7B.

BB/W diabetic rats = test: Progression of neuropathic pain and nerve conduction deficits in BB/W model; assay type: in vivo, rat
Text: Male BB/W rats (BRI, Mass) spontaneously develop a cell mediated autoimmune destruction of pancreatic B cells, resulting in onset of insulin-dependent (Type I) diabetes (Guberski 1994). […] This renders them valuable for experimental trials of new compounds for future treatments of this major disorder. In the present study, Compound D and Compound A were examined for their ability to alter the progression of diabetic neuropathy. The rats received daily injection of Compound D or Compound A (10 mg/kg i.p.) or vehicle, starting at the onset of diabetes (hyperglycemia) and up to 6 months thereafter. Another group of non-diabetic rats also receiving vehicle were tested. All animals were continuously monitored for body weight, urine volume, blood sugar and glycated haemoglobin. In the first month of the study, all animals were tested for thermal nociception in a Hargreaves apparatus, weekly. After the first month this was done biweekly and then monthly. The testing consists of directing an infrared heat source onto the dorsal surface of the rat hindpaw and noting the time taken for the animal to remove its paw (see Hargreaves et al., supra, for a description of the experimental method). Each animal was tested 8 times and the mean withdrawal latency noted.
Nerve conduction velocity was also measured every two weeks through the first eight weeks of treatment and every month thereafter through to the six months of treatment (see De Koning et al., Peptides, Vol. 8, No. 3, pp. 415–22 (1987) for a description of the experimental method). […] This was apparent starting at 8 weeks of treatment and persisted to a similar degree through to the six month termination point of the study.

STZ-diabetic rats [2] = test: Diabetic neuropathy in STZ model (nerve conduction velocity); assay type: in vivo, rat
Method: Motor and sensory nerve conduction velocity was also measured in STZ-diabetic animals after 4, 8 and 12 weeks of treatment (see De Koning et al., supra, for a description of the experimental method). Briefly, stimulating needle electrodes were inserted close to the sciatic and tibial nerves with recording electrodes being placed subcutaneously over the distal foot muscles, in anesthetized rats.

STZ-diabetic rats [3] = test: Reversal of diabetic neuropathy in STZ model, delayed dosing; assay type: in vivo, rat; settings: for neuropathic hyperalgesia / motor nerve conduction velocity: daily p.o.; for neuropathic hyperalgesia: treatment from 5 weeks post STZ, within two weeks of treatment; for motor nerve conduction velocity: within 8 weeks of dosing, persisted through 12 weeks
Method: Rats (200–225 grams) were injected with STZ (70 mg/kg) into the tail vein. Diabetes (>350 mg/dl) was confirmed in all rats, 4 weeks after STZ administration. Rats were left untreated until 35–49 days after STZ. Compound D (1, 3, or 10 mg/kg), Compound E (10 mg/kg), or vehicle were dosed daily p.o. following confirmation of hyperalgesia and/or nerve conduction velocity deficits. In separate experiments, onset of treatment was delayed until 60 to 90 days after STZ administration. Nerve conduction velocity or withdrawal response to thermal stimulation of hind paws was measured at intervals, usually bi-weekly for thermal response and monthly for nerve conduction velocity.
Sensory and motor nerve conduction velocities were evaluated using the method of De Koning and Gispen (Peptides 8: 415–422, 1987). Electrophysiological evaluation was carried out within one hour of dosing. Animals were anesthetized with isoflurane and stimulating needle electrodes were inserted close to the sciatic nerve at the sciatic notch and the tibial nerve near the ankle. Recording electrodes were placed over the foot muscles. Stimuli were applied and responses recorded. Motor and sensory nerve conduction velocities were calculated by measuring the distance between the sciatic notch and ankle sites, and the latency between the M-wave and the H-reflex.
Animals were acclimated to the apparatus for at least 5 min. An infra-red source was placed under below the plantar surface of the rat hind-paw. The intensity of the source was adjusted so that latency for normal rats was about 10 secs. Animals were tested for thermal response latency according to the method of Hargreaves et al (Pain 77–88, 1988). Each animal was tested 8 times (4 each hind limb) and the latency of response recorded automatically to nearest 0.1 sec. An average of the last 4 measurements for each paw was calculated (8 total measurements) and noted for each rat.

T1 sequence (Q04609 whole entry): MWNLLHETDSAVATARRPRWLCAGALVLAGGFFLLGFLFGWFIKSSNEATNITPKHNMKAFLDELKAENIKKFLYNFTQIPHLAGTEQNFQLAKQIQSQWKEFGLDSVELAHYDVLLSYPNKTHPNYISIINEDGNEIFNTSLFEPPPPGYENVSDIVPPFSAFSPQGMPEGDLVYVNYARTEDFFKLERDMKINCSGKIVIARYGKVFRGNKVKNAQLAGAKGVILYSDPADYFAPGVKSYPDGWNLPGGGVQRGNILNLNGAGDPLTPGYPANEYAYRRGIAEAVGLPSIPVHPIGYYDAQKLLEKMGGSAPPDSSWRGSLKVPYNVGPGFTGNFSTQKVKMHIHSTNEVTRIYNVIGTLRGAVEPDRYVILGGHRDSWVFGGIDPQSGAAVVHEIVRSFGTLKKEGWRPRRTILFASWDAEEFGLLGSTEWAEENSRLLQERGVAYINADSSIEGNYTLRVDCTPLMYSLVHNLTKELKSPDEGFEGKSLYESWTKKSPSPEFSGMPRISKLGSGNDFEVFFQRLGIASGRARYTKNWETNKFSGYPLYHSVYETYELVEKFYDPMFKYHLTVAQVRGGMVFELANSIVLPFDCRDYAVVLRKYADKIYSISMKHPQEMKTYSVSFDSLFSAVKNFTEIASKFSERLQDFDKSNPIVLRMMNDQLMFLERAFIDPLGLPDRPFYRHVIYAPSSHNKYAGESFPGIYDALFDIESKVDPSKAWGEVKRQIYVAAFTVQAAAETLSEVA

`O=C(O)c1c(CCS)c2ccccc2n1-c1ccccc1` [Compound 11, 3-(2-mercaptoethyl)-1-phenyl-1H-indole-2-carboxylic acid] was tested, and the IC50 (NAALADase) was 4740 nM.
With `O=C(O)c1c(CCS)c2ccccc2n1CCc1ccccc1` [Compound 12, 3-(2-mercaptoethyl)-1-(2-phenylethyl)-1H-indole-2-carboxylic acid] the IC50 (NAALADase) was 44000 nM.
In the case of `O=C(O)c1ccccc1Cn1c(C(=O)O)c(CCS)c2ccccc21` [Compound 7, 1-[(2-carboxyphenyl)methyl]-3-(2-mercaptoethyl)-1H-indole-2-carboxylic acid], the IC50 (NAALADase) is reported as 18.5 nM.
In the case of `O=C(O)CCC(CCS)C(=O)O` (stereo not shown) [Compound D, 2-(2-sulfanylethyl)-pentanedioic acid], the “hyperalgesic response (withdrawal latency difference score)” value (STZ-diabetic rats [1]) is reported as “completely reversed”, the “nerve conduction velocity deficits versus diabetic vehicle controls” value (BB/W diabetic rats; 10 mg/kg daily, from 8 weeks to six months) is reported as “significantly less severe nerve conduction deficits” and the “withdrawal latency versus diabetic vehicle-treated rats” value (BB/W diabetic rats; 10 mg/kg i.p. daily, from 4 weeks through six months of treatment) is reported as “longer withdrawal latencies”. The “motor and sensory nerve conduction velocities” value (STZ-diabetic rats [2]; 1 mg/kg) was “increased”, the “motor and sensory nerve conduction velocities” value (STZ-diabetic rats [2]; 10 mg/kg daily, 4, 8 and 12 weeks) was “increased” and the “sensory and motor nerve conduction velocity deficits” value (STZ-diabetic rats [3]; STZ rats untreated until 60 days after STZ, external CRO) was “Partial reversal”. The neuropathic pain abnormalities (STZ-diabetic rats [3]; STZ rats, 1 and 3 mg/kg, treatment from 7 weeks post STZ) was “Significant reduction”, the motor nerve conduction (STZ-diabetic rats [3]; STZ rats, 1 and 3 mg/kg, treatment from 7 weeks post STZ, 8 weeks after dosing) was “remained unimproved” and the sensory nerve conduction (STZ-diabetic rats [3]; STZ rats, 1 and 3 mg/kg, treatment from 7 weeks post STZ, within 4 weeks of treatment) was “significantly improved towards normal”. The neuropathic hyperalgesia (STZ-diabetic rats [3]; STZ rats) was “reversed towards normal” and the “motor nerve conduction velocity” value (STZ-diabetic rats [3]; STZ rats) was “reversed the motor nerve conduction velocity towards normal”.
`O=C(O)c1[nH]c2ccccc2c1CCS` [Compound 1, 3-(2-mercaptoethyl)-1H-indole-2-carboxylic acid] was tested, and the IC50 (NAALADase) was 1240 nM.
`CC(C)(C)c1cc(Cn2c(C(=O)O)c(CCS)c3ccccc32)cc(C(=O)O)c1` [Compound 8, 1-[[3-carboxy-5-(1,1-dimethylethyl)-phenyl]methyl]-3-(2-mercaptoethyl)-1H-indole-2-carboxylic acid] was tested, and the IC50 (NAALADase) was 35 nM.
`O=C(O)c1cc(Cn2c(C(=O)O)c(CCS)c3ccccc32)ccc1Br` [Compound 9, 1-[(4-bromo-3-carboxyphenyl)methyl]-3-(2-mercaptoethyl)-1H-indole-2-carboxylic acid] gave an IC50 (NAALADase) of 104 nM.
In the case of `O=C(O)c1ccc(Br)c(Cn2c(C(=O)O)c(CCS)c3ccccc32)c1` [Compound 4, 1-[(2-bromo-5-carboxyphenyl)methyl]-3-(2-mercaptoethyl)-1H-indole-2-carboxylic acid], the IC50 (NAALADase) is reported as 54.3 nM.
Work on `COc1ccc(C(=O)O)c(Cn2c(C(=O)O)c(CCS)c3ccccc32)c1` [Compound 10, 1-[(2-carboxy-5-methoxyphenyl)methyl]-3-(2-mercaptoethyl)-1H-indole-2-carboxylic acid] yielded an IC50 (NAALADase) of 12 nM.
`O=C(O)c1ccc(Cn2c(C(=O)O)c(CCS)c3ccccc32)cc1` [Compound 5, 1-[(4-carboxyphenyl)methyl]-3-(2-mercaptoethyl)-1H-indole-2-carboxylic acid] showed an IC50 (NAALADase) of 66.5 nM.
In the case of `O=C(O)c1cccc(CC(CCCS)C(=O)O)c1` (stereo not drawn) [Compound E, 3-carboxy-alpha-(3-mercaptopropyl)benzenepropanoic acid], the neuropathic hyperalgesia (STZ-diabetic rats [3]; STZ rats) is reported as “reversed towards normal” and the “motor nerve conduction velocity” value (STZ-diabetic rats [3]; STZ rats) is reported as “reversed the motor nerve conduction velocity towards normal”.
For `O=C(O)c1[nH]c2c(C(=O)O)cccc2c1CCS` [Compound 2, 3-(2-mercaptoethyl)-1H-indole-2,7-dicarboxylic acid], the IC50 (NAALADase) was 760 nM.
Compound `O=C(O)c1c(CCS)c2ccccc2n1Cc1ccccc1` [Compound 6, 3-(2-mercaptoethyl)-1-(phenylmethyl)-1H-indole-2-carboxylic acid] has an IC50 (NAALADase) of 12100 nM.
Compound `O=C(O)c1cccc(Cn2c(C(=O)O)c(CCS)c3ccccc32)c1` [Compound 3, 1-[(3-carboxyphenyl)methyl]-3-(2-mercaptoethyl)-1H-indole-2-carboxylic acid] has an IC50 (NAALADase) of 55.3 nM.
